According to the NIST ThermoML archive (doi:10.1021/je0504109):
Numbers after ± are expanded uncertainties. Each block holds one compound with its values, some of them ahead of it.

Columns and labels:
[1] = 298.15 K; 101 kPa; Liquid
[2] = xn = mol fraction of the nth substance listed; details: 298.15 K, 101 kPa, Liquid

mass density [1]: 952.8 ± 0.8 kg/m3 | viscosity [1]: 1.396 ± 0.023 mPa·s
Compound: CCCC(=O)O [butanoic acid]

mass density [1]: 731.9 ± 0.6 kg/m3 | viscosity [1]: 0.493 ± 0.009 mPa·s
Compound: CCCCN [1-butanamine]

Compound: CCCCOC(C)=O [butyl ethanoate]
mass density [1]: 874.4 ± 0.7 kg/m3 | viscosity [1]: 0.668 ± 0.012 mPa·s

Compound: C1COCO1 [1,3-dioxolane]
mass density [1]: 1057.1 ± 0.9 kg/m3 | viscosity [1]: 0.531 ± 0.01 mPa·s

Compound: CCC(C)=O [butanone]
mass density [1]: 798.1 ± 0.6 kg/m3 | viscosity [1]: 0.373 ± 0.007 mPa·s

Compound: CCC(C)=O [butanone] + C1COCCO1
mass density ([2]; x2 = 0): 798.1 ± 0.6 kg/m3 | viscosity ([2]; x2 = 0): 0.373 ± 0.007 mPa·s | mass density ([2]; x2 = 0.0833): 817 ± 0.6 kg/m3 | viscosity ([2]; x2 = 0.0833): 0.391 ± 0.008 mPa·s | mass density ([2]; x2 = 0.1698): 836.5 ± 0.7 kg/m3 | viscosity ([2]; x2 = 0.1698): 0.411 ± 0.008 mPa·s | mass density ([2]; x2 = 0.2597): 856.8 ± 0.7 kg/m3 | viscosity ([2]; x2 = 0.2597): 0.436 ± 0.008 mPa·s | mass density ([2]; x2 = 0.353): 877.9 ± 0.7 kg/m3 | viscosity ([2]; x2 = 0.353): 0.464 ± 0.009 mPa·s | mass density ([2]; x2 = 0.4501): 900.1 ± 0.7 kg/m3 | viscosity ([2]; x2 = 0.4501): 0.512 ± 0.01 mPa·s | mass density ([2]; x2 = 0.5511): 923.3 ± 0.7 kg/m3 | viscosity ([2]; x2 = 0.5511): 0.576 ± 0.011 mPa·s | mass density ([2]; x2 = 0.6563): 947.2 ± 0.8 kg/m3 | viscosity ([2]; x2 = 0.6563): 0.65 ± 0.012 mPa·s | mass density ([2]; x2 = 0.766): 972.2 ± 0.8 kg/m3 | viscosity ([2]; x2 = 0.766): 0.751 ± 0.013 mPa·s | mass density ([2]; x2 = 0.8805): 998.5 ± 0.8 kg/m3 | viscosity ([2]; x2 = 0.8805): 0.901 ± 0.015 mPa·s

Compound: C1COCCO1 [1,4-dioxane]
mass density [1]: 1026.5 ± 0.8 kg/m3 | viscosity [1]: 1.196 ± 0.02 mPa·s

Compound: C1COCCO1 [1,4-dioxane] + CCC(C)=O
mass density ([2]; x1 = 1): 1026.5 ± 0.8 kg/m3 | viscosity ([2]; x1 = 1): 1.196 ± 0.02 mPa·s

Compound: C1COCO1 [1,3-dioxolane] + CCCCOC(C)=O
mass density ([2]; x1 = 0.1484): 890.7 ± 0.7 kg/m3 | viscosity ([2]; x1 = 0.1484): 0.621 ± 0.011 mPa·s | mass density ([2]; x1 = 0.2816): 906.9 ± 0.7 kg/m3 | viscosity ([2]; x1 = 0.2816): 0.599 ± 0.011 mPa·s | mass density ([2]; x1 = 0.4019): 923.3 ± 0.7 kg/m3 | viscosity ([2]; x1 = 0.4019): 0.588 ± 0.011 mPa·s | mass density ([2]; x1 = 0.5111): 940.3 ± 0.8 kg/m3 | viscosity ([2]; x1 = 0.5111): 0.583 ± 0.011 mPa·s | mass density ([2]; x1 = 0.6106): 957.8 ± 0.8 kg/m3 | viscosity ([2]; x1 = 0.6106): 0.577 ± 0.011 mPa·s | mass density ([2]; x1 = 0.7017): 976.1 ± 0.8 kg/m3 | viscosity ([2]; x1 = 0.7017): 0.571 ± 0.01 mPa·s | mass density ([2]; x1 = 0.7853): 995.2 ± 0.8 kg/m3 | viscosity ([2]; x1 = 0.7853): 0.565 ± 0.01 mPa·s | mass density ([2]; x1 = 0.8625): 1015 ± 0.8 kg/m3 | viscosity ([2]; x1 = 0.8625): 0.556 ± 0.01 mPa·s | mass density ([2]; x1 = 0.9338): 1035.6 ± 0.9 kg/m3 | viscosity ([2]; x1 = 0.9338): 0.544 ± 0.01 mPa·s | mass density ([2]; x1 = 1): 1057.1 ± 0.9 kg/m3 | viscosity ([2]; x1 = 1): 0.531 ± 0.01 mPa·s
